According to publication PMC3350798 (Journal of Medicinal Chemistry, 2012):
“Also recorded” adds a separate entry of the source. Where two headings read alike, the source gives them in different places. Each block holds one molecule with its values, some of them ahead of it.

Experiments:
Tdp1 [1] = molecular target: T1, Tdp1 (Homo sapiens, UniProt Q9NUW8); conditions: cited from earlier work
Tdp1 [2] = molecular target: T1, Tdp1; assay: FRET assay, mechanism of inhibition of Tdp1; type: biochemical
Tdp1 [3] = molecular target: T1, Tdp1; assay: Surface plasmon resonance binding to amine coupled Tdp1; conditions: 33, 11, 3.7, 1.2 and 0.4 μM injected over amine coupled Tdp1
Human recombinant Top1 = molecular target: T2, Human recombinant Top1 (Homo sapiens, UniProt P11387); assay: Topoisomerase I-mediated DNA cleavage assay; type: biochemical; conditions: semiquantitative, relative to 1 μM camptothecin
T2 sequence (P11387 1-765): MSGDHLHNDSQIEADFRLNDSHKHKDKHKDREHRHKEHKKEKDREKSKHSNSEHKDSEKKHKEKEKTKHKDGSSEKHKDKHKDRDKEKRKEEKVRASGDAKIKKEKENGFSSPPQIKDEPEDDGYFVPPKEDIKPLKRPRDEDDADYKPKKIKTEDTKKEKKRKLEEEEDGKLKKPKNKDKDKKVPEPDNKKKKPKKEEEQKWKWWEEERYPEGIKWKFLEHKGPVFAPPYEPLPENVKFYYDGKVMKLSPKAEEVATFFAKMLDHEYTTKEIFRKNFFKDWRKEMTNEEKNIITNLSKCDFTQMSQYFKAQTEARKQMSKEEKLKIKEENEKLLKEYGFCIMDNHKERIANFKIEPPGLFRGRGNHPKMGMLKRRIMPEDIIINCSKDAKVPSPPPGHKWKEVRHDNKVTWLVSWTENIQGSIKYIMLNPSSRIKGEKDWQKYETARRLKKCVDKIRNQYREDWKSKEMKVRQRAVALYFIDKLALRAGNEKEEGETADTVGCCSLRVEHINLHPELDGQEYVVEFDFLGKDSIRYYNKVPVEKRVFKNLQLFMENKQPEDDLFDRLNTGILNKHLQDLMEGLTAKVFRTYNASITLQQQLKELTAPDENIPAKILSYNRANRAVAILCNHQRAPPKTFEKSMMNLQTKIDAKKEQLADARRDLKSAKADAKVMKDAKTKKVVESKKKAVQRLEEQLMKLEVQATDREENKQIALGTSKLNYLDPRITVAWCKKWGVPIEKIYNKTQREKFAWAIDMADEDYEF

[4] = system: 60 human cancer cell lines; conditions: read-out: MGM GI50, mean graph midpoint; cited from earlier work

T1 sequence (Q9NUW8 whole entry): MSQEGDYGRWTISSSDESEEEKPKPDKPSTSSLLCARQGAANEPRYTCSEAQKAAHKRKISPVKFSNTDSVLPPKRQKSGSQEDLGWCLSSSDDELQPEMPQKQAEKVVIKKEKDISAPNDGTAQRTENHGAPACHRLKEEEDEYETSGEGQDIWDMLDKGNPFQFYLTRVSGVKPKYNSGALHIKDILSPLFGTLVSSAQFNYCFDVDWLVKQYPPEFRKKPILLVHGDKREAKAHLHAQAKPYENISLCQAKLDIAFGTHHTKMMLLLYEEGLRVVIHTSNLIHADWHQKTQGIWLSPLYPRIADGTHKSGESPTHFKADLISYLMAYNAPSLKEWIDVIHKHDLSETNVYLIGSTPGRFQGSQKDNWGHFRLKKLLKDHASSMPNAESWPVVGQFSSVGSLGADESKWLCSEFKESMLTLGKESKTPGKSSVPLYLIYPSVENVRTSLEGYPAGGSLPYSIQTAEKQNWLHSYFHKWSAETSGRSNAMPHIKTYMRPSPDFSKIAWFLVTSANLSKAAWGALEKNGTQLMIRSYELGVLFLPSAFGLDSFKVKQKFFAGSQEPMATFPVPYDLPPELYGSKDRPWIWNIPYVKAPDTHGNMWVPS

Structure (SMILES): C[C@]12CC[C@H]3[C@@H](CCC4=CC(=O)CC[C@@]43C)[C@@H]1CC[C@@H]2C(=O)COS(=O)(=O)c1ccc(Br)cc1 [compound 7, 4-Pregnen-21-ol-3,20-dione-21-(4-bromobenzenesufonate)]
Mechanism of inhibition of Tdp1 (Tdp1 [1]): competitive with the DNA substrate

Mechanism of inhibition of Tdp1 (Tdp1 [2]): competitive inhibitor
Structure (SMILES): Cl.NCCCn1c2c(c3ccccc3c1=O)C(=O)c1ccccc1-2 [compound 70]
Binding to Tdp1 by surface plasmon resonance (Tdp1 [3]): direct binding; also recorded: rapidly reaches equilibrium and then completely dissociates

Structure (SMILES): Cl.NCCCCCCCCCCCCn1c2c(c3ccccc3c1=O)C(=O)c1ccccc1-2 [compound 79]
Top1 (compound-induced DNA cleavage due to Top1 inhibition) (Human recombinant Top1): 0/+

Structure (SMILES): O=C1c2ccccc2-c2c1c1ccccc1c(=O)n2CCCNCCCNCCCn1c2c(c3ccccc3c1=O)C(=O)c1ccccc1-2 [compound 145, Bis-1,3-{(5,6-dihydro-5,11-diketo-11H-indeno[1,2-c]isoquinoline)-6-propylamino}propane Bis(trifluoroacetate)]
GI50 [4]: 394 nM

Structure (SMILES): [O]=[V]([O-])([O-])[O-] [vanadate]
Tdp1 inhibition (Tdp1 [1]): inhibition at millimolar concentrations
